Several values for one entry are separate records, joined by “and”; a condition that tells them apart may be missing. Equal entries are not always repeated. Structures can show the parent of a compound that is named as a salt.

The first assay has as its system 5-HT2AR.
Assay: not given
The conditions noted are these: 5-HT2AR S159A vs WT; ref 52 (Kim et al.); cited from earlier work.
Regarding `NCCc1c[nH]c2ccc(O)cc12` [5-HT, serotonin, reference compound], the “Change of efficacy with the S159A mutation, Gαq-dissociation BRET assay” value is given as “remained roughly unchanged” and the “Decrease in potency with the S159A mutation, Gαq-dissociation BRET assay” value is reported as 157 fold.

A further assay has as its target T1, 5-HT2AR (Homo sapiens, UniProt P28223).
T1 construct: expressed in transfected cells; host or cells: HEK 293T (transient transfection)
Assay: not given
The conditions noted are these: wild-type 5-HT2AR; previously reported values; cited from earlier work. Also on record: method as in PMID 32998000.
Target sequence in this assay (P28223 whole entry): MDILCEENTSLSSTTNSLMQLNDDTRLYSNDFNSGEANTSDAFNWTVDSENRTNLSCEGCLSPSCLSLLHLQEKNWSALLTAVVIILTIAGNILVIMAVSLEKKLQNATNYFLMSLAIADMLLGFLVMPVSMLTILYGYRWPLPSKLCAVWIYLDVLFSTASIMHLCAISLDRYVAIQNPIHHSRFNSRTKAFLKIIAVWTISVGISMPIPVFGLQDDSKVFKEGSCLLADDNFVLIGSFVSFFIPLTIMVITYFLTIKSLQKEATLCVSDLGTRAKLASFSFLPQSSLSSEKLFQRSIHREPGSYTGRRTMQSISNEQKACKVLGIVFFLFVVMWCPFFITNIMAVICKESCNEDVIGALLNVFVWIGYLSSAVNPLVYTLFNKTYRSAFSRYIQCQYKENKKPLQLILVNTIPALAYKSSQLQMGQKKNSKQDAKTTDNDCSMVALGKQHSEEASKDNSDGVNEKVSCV
Regarding `COc1cc(CCNCc2ccccc2O)c(OC)cc1I` [25I-NBOH], the “Emax, miniGαq assay” value is given as 111–160%.
In the case of `COc1cc(CCNCc2ccccc2OC)c(OC)cc1I` [25I-NBOMe], the “Emax, miniGαq assay” value was 111–160%.

Another assay has as its system 5-HT2AR.
Assay: not given
The arrangement: method as in PMID 35084960. The conditions noted are these: partial agonist with bias toward βarr2 over Gαq-γ9, reference 5-HT; cited from earlier work.
As to `COc1ccccc1CCCN1CC[C@H]2[C@@H](C1)c1cccc3c1N2CCN3C` [IHCH-7086], the Emax is on record as 13%.

The target of the next assay is T2, 5-HT2AR S159A-mutated receptor (Homo sapiens, UniProt P28223, S159A).
T2 construct: expressed in transfected cells; host or cells: HEK 293T (transient transfection); mutant made by site-directed mutagenesis of 5-HT2AR-LgBiT
Description: cell-based. Format: cell-based.
Conditions: not given
Target sequence in this assay (P28223 whole entry S159A): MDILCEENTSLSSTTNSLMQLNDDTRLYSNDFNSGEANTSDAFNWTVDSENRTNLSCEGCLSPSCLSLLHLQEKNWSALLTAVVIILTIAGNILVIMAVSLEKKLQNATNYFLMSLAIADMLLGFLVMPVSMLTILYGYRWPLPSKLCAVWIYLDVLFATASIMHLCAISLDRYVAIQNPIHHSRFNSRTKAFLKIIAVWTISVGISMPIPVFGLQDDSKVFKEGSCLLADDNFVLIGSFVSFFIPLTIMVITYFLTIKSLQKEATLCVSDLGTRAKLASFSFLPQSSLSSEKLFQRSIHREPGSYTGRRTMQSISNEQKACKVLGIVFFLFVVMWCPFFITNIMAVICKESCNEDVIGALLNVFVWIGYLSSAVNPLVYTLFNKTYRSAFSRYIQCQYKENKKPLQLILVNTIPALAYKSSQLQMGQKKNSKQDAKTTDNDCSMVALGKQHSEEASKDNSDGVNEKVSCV
Target sequence in this assay (P32121 whole entry partner): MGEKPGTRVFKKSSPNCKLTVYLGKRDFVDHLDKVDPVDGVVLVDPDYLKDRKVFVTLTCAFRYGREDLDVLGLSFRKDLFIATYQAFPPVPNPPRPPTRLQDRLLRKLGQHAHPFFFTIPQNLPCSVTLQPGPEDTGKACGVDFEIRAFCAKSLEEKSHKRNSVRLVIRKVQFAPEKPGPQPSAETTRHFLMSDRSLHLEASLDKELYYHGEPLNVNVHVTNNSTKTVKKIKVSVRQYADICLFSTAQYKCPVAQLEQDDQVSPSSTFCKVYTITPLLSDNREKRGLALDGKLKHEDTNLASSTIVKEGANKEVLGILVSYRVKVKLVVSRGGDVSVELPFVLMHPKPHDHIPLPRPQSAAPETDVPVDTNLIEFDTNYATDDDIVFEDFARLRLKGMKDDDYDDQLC
Turning to `COc1cc(CCNC2COc3ccccc32)c(OC)cc1C#N` (racemic) [(±)-6f, (±)-4-(2-((2,3-Dihydrobenzofuran-3-yl)amino)ethyl)-2,5-dimethoxybenzonitrile Hydrochloride], the “Reduction of agonist potency at 5-HT2AR S159A compared to WT, βarr2 recruitment assay” value (“Reduction … βarr2 recruitment assay” below) is approximately 10 fold; the “β-arr2 Emax (%) [CI]” value is 90.8 [81.9–101] % and 118%.
For the compound `COc1cc(CCNCc2cccc(O)c2)c(OC)cc1Br` [4a, 3-(((4-Bromo-2,5-dimethoxyphenethyl)amino)methyl)phenol Hydrochloride], the “Reduction … βarr2 recruitment assay” value is given as “approximately 15 fold”; the “β-arr2 Emax (%) [CI]” value was 89.8 [75.8–108] % and 110%.
As to `COc1cccc(CNCCc2cc(OC)c(Br)cc2OC)c1` [4b, 2-(4-Bromo-2,5-dimethoxyphenyl)-N-(3-methoxybenzyl)ethan-1-amine Hydrochloride], the “Reduction … βarr2 recruitment assay” value amounted to 7 fold; the “β-arr2 Emax (%) [CI]” value is 106 [97.5–114] % and 130%.
In the case of `NCCc1c[nH]c2ccc(O)cc12` [5-HT, serotonin, reference compound], the “Drop in efficacy in the S159A-mutated 5-HT2AR, β-arr2” value came to 33%.

The same assay, now with this note: read-out: β-arr2 EC50 (nM) [CI].
Take `COc1cc(CCNC2COc3ccccc32)c(OC)cc1C#N` (racemic) [(±)-6f, (±)-4-(2-((2,3-Dihydrobenzofuran-3-yl)amino)ethyl)-2,5-dimethoxybenzonitrile Hydrochloride]: the EC50 is 1020 nM and 1030 nM.
Turning to `COc1cc(CCNCc2cccc(O)c2)c(OC)cc1Br` [4a, 3-(((4-Bromo-2,5-dimethoxyphenethyl)amino)methyl)phenol Hydrochloride], the EC50 is 172 nM and 175 nM.
Take `COc1cccc(CNCCc2cc(OC)c(Br)cc2OC)c1` [4b, 2-(4-Bromo-2,5-dimethoxyphenyl)-N-(3-methoxybenzyl)ethan-1-amine Hydrochloride]: the EC50 was 81.9 nM and 80.4 nM.

The target in the next assay is T1, 5-HT2AR. Description: cell-based. It counts as cell-based. The conditions noted are these: read-out: miniGαq EC50 (nM) [CI].
Target sequence in this assay (P28223 whole entry): as the sequence (P28223 whole entry) above
With `COc1cc(CCNC2COc3ccccc32)c(OC)cc1C#N` (racemic) [(±)-6f, (±)-4-(2-((2,3-Dihydrobenzofuran-3-yl)amino)ethyl)-2,5-dimethoxybenzonitrile Hydrochloride], the EC50 is 631 nM and 608 nM.
Turning to `COc1cc(CCNCc2cccc(O)c2)c(OC)cc1Br` [4a, 3-(((4-Bromo-2,5-dimethoxyphenethyl)amino)methyl)phenol Hydrochloride], the EC50 is 48.8 nM and 46.9 nM.
With `COc1cccc(CNCCc2cc(OC)c(Br)cc2OC)c1` [4b, 2-(4-Bromo-2,5-dimethoxyphenyl)-N-(3-methoxybenzyl)ethan-1-amine Hydrochloride], the EC50 is 44.4 nM and 43.3 nM.

In a further assay the test system is 5-HT2AR S159A-mutated receptor. Description: cell-based. Format: cell-based, human.
Conditions: not given
For the compound `COc1cc(CCNC2COc3ccccc32)c(OC)cc1C#N` (racemic) [(±)-6f, (±)-4-(2-((2,3-Dihydrobenzofuran-3-yl)amino)ethyl)-2,5-dimethoxybenzonitrile Hydrochloride], the “Reduction of agonist potency at 5-HT2AR S159A compared to WT, miniGαq recruitment assay” value worked out at 2.6 fold.
On the same count and under the same terms, the result for `COc1cc(CCNCc2cccc(O)c2)c(OC)cc1Br` [4a, 3-(((4-Bromo-2,5-dimethoxyphenethyl)amino)methyl)phenol Hydrochloride] reads approximately 3 fold.
For `NCCc1c[nH]c2ccc(O)cc12` [5-HT, serotonin, reference compound], the “Drop in efficacy in the S159A-mutated 5-HT2AR, miniGαq” value came to 173% and the “Reduction of agonist potency at 5-HT2AR S159A compared to WT, miniGαq recruitment assay” value is on record as 13 fold.

The target of a further assay is T2, 5-HT2AR S159A-mutated receptor. The experiment in a line: cell-based.
Conditions: not given
Format: cell-based. This is another data set of the same source.
Target sequence in this assay (P28223 whole entry S159A): as the sequence (P28223 whole entry S159A) above
In the case of `COc1cc(CCNCc2cccc(O)c2)c(OC)cc1Br` [4a, 3-(((4-Bromo-2,5-dimethoxyphenethyl)amino)methyl)phenol Hydrochloride], the “miniGαq Emax (%) [CI]” value was 36.8%.
As for `COc1cccc(CNCCc2cc(OC)c(Br)cc2OC)c1` [4b, 2-(4-Bromo-2,5-dimethoxyphenyl)-N-(3-methoxybenzyl)ethan-1-amine Hydrochloride], a half-maximal effect (EC50) was put at 118 nM; the “miniGαq Emax (%) [CI]” value was 44.7 [36.9–53.9] % and 81.0%.

The assay is the same for the next values; noted with them: read-out: miniGαq EC50 (nM) [CI].
As to `COc1cc(CCNC2COc3ccccc32)c(OC)cc1C#N` (racemic) [(±)-6f, (±)-4-(2-((2,3-Dihydrobenzofuran-3-yl)amino)ethyl)-2,5-dimethoxybenzonitrile Hydrochloride], the EC50 was 1650 nM.
For `COc1cc(CCNCc2cccc(O)c2)c(OC)cc1Br` [4a, 3-(((4-Bromo-2,5-dimethoxyphenethyl)amino)methyl)phenol Hydrochloride], the EC50 is 154 nM and 156 nM.
The same measure, in the same setting: to `COc1cccc(CNCCc2cc(OC)c(Br)cc2OC)c1` [4b, 2-(4-Bromo-2,5-dimethoxyphenyl)-N-(3-methoxybenzyl)ethan-1-amine Hydrochloride] belongs 112 nM.

Still in this assay, the particulars now being: read-out: miniGαq Emax (%) [CI].
Turning to `COc1cc(CCNCc2cccc(O)c2)c(OC)cc1Br` [4a, 3-(((4-Bromo-2,5-dimethoxyphenethyl)amino)methyl)phenol Hydrochloride], the maximum response (Emax) was 21%.

For another assay, the system named is 5-HT2AR S159A-mutated receptor. Description: Bias factor (βarr2 vs miniGαq recruitment), intrinsic relative activity approach, S159A mutated 5-HT2AR. To be noted: 5-HT2A-S159A; referenced with 5-HT; from the combined EC50 and Emax values. Format: cell-based, human.
Description: The resulting data were analyzed as described before in more detail.[55] In brief, the obtained time–luminescence profiles are corrected for interwell variability and used for the calculation of the area under the curve (AUC), from which the AUC of the corresponding solvent control is subtracted. Data are then normalized using GraphPad Prism software (San Diego, CA), where the maximal response of the reference agonist is arbitrarily set at 100%. After pooling the data of the individual experiments, the potency and efficacy values are calculated in GraphPad Prism through three parametric nonlinear regression analysis. To quantify the tendency of the measured substances toward preferentially inducing one pathway or the other, bias factors are calculated via the “intrinsic relative activity approach.[56],[57] In this approach, an RAi value is calculated for each substance in each of the measured assays, relative to a reference agonist, using the following formula [drawing 1] The obtained values for the respective pathways are then combined into a bias factor, βi [drawing 2] This formula implies that the value of βi for the reference agonist is 0. A positive bias factor indicates a preference toward the recruitment of βarr2 over miniGαq, compared to the respective reference agonist. A negative bias factor then points to a relative preference toward the recruitment of miniGαq over βarr2. To assess whether the obtained bias factors are statistically significant from 0, a Kruskal–Wallis analysis (which is the nonparametric counterpart of one-way analysis of variance (ANOVA), selected a priori to avoid presumptuous conclusions) with post hoc Dunn’s multiple comparison was carried out in GraphPad Prism. To qualitatively visualize the possible preference of a certain substance towards recruiting either one cytosolic protein or the other, bias plots were generated via GraphPad Prism. To this end, the normalized AUC values obtained in the βarr2 assay are plotted on the x-axis, and those obtained in the miniGαq assay are plotted on the y-axis. On each plot, both the respective reference agonist and one substance of interest are plotted, and a curve is fitted through the centered second-order (quadratic) polynomial fitting.[58]
As to `COc1cc(CCNC2COc3ccccc32)c(OC)cc1C#N` (racemic) [(±)-6f, (±)-4-(2-((2,3-Dihydrobenzofuran-3-yl)amino)ethyl)-2,5-dimethoxybenzonitrile Hydrochloride], the “Alternative β-factor” value turned out to be 0.486.
`COc1cc(CCNCc2cccc(O)c2)c(OC)cc1Br` [4a, 3-(((4-Bromo-2,5-dimethoxyphenethyl)amino)methyl)phenol Hydrochloride]: the “Alternative β-factor” value was 0.096.
In the case of `COc1cccc(CNCCc2cc(OC)c(Br)cc2OC)c1` [4b, 2-(4-Bromo-2,5-dimethoxyphenyl)-N-(3-methoxybenzyl)ethan-1-amine Hydrochloride], the “Alternative β-factor” value turned out to be 0.043.

Staying with this assay, now noted: 5-HT2A-S159A; referenced with LSD; from the combined EC50 and Emax values.
With `COc1cc(CCNC2COc3ccccc32)c(OC)cc1C#N` (racemic) [(±)-6f, (±)-4-(2-((2,3-Dihydrobenzofuran-3-yl)amino)ethyl)-2,5-dimethoxybenzonitrile Hydrochloride], the “Alternative β-factor” value came to 1.010.
As for `COc1cc(CCNCc2cccc(O)c2)c(OC)cc1Br` [4a, 3-(((4-Bromo-2,5-dimethoxyphenethyl)amino)methyl)phenol Hydrochloride], the “Alternative β-factor” value worked out at 0.566.
With `COc1cccc(CNCCc2cc(OC)c(Br)cc2OC)c1` [4b, 2-(4-Bromo-2,5-dimethoxyphenyl)-N-(3-methoxybenzyl)ethan-1-amine Hydrochloride], the “Alternative β-factor” value is listed as 0.494.

Still in this assay, the particulars now being: 5-HT2A-S159A; relative to LSD; average of three experiments.
For `COc1cccc(CNCCc2cc(OC)c(Br)cc2OC)c1` [4b, 2-(4-Bromo-2,5-dimethoxyphenyl)-N-(3-methoxybenzyl)ethan-1-amine Hydrochloride], the β-factor was determined as 0.565.
For `NCCc1c[nH]c2ccc(O)cc12` [5-HT, serotonin, reference compound], the β-factor stood at 0.550.

The same assay, now with this note: 5-HT2A-S159A; relative to serotonin (5-HT); average of three experiments.
In turn, `COc1cccc(CNCCc2cc(OC)c(Br)cc2OC)c1` [4b, 2-(4-Bromo-2,5-dimethoxyphenyl)-N-(3-methoxybenzyl)ethan-1-amine Hydrochloride] showed a β-factor of 0.102.
In turn, `NCCc1c[nH]c2ccc(O)cc12` [5-HT, serotonin, reference compound] showed a β-factor of 0.

The next assay deals with T1, 5-HT2AR. Description: cell-based. It counts as cell-based.
Conditions: not given
Target sequence in this assay (P32121 whole entry): as the sequence (P32121 whole entry partner) above
Target sequence in this assay (P28223 whole entry): as the sequence (P28223 whole entry) above
Consider `COc1cc(CCNC2COc3ccccc32)c(OC)cc1C#N` (racemic) [(±)-6f, (±)-4-(2-((2,3-Dihydrobenzofuran-3-yl)amino)ethyl)-2,5-dimethoxybenzonitrile Hydrochloride], for which the “β-arr2 Emax (%) [CI]” value was determined as 76.0%.
The same measure, in the same setting: to `COc1cc(CCNCc2cccc(O)c2)c(OC)cc1Br` [4a, 3-(((4-Bromo-2,5-dimethoxyphenethyl)amino)methyl)phenol Hydrochloride] belongs 98.9%; to `COc1cccc(CNCCc2cc(OC)c(Br)cc2OC)c1` [4b, 2-(4-Bromo-2,5-dimethoxyphenyl)-N-(3-methoxybenzyl)ethan-1-amine Hydrochloride], 100%.

Staying with this assay, now noted: HEK-293T, read-out: β-arr2 Emax (%) [CI].
On to `COc1cc(CCNC2COc3ccccc32)c(OC)cc1C#N` (racemic) [(±)-6f, (±)-4-(2-((2,3-Dihydrobenzofuran-3-yl)amino)ethyl)-2,5-dimethoxybenzonitrile Hydrochloride], for which the Emax amounted to 82.9%.
Same read-out and setting: to `COc1cc(CCNCc2cccc(O)c2)c(OC)cc1Br` [4a, 3-(((4-Bromo-2,5-dimethoxyphenethyl)amino)methyl)phenol Hydrochloride] belongs 112%; to `COc1cccc(CNCCc2cc(OC)c(Br)cc2OC)c1` [4b, 2-(4-Bromo-2,5-dimethoxyphenyl)-N-(3-methoxybenzyl)ethan-1-amine Hydrochloride], 113%.

Still in this assay, the particulars now being: read-out: β-arr2 EC50 (nM) [CI].
Take `COc1cc(CCNC2COc3ccccc32)c(OC)cc1C#N` (racemic) [(±)-6f, (±)-4-(2-((2,3-Dihydrobenzofuran-3-yl)amino)ethyl)-2,5-dimethoxybenzonitrile Hydrochloride]: the EC50 worked out at 108 nM.
Take `COc1cc(CCNCc2cccc(O)c2)c(OC)cc1Br` [4a, 3-(((4-Bromo-2,5-dimethoxyphenethyl)amino)methyl)phenol Hydrochloride]: the EC50 came out at 11.1 nM.
On the same count and under the same terms, to `COc1cccc(CNCCc2cc(OC)c(Br)cc2OC)c1` [4b, 2-(4-Bromo-2,5-dimethoxyphenyl)-N-(3-methoxybenzyl)ethan-1-amine Hydrochloride] belongs 11.1 nM.

For the next assay, the target named is T1, 5-HT2AR.
Assay: not given
The arrangement: method as in PMID 32998000. The conditions noted are these: wild-type 5-HT2AR; previously reported values; cited from earlier work. The source holds these as a separate data set.
Target sequence in this assay (P32121 whole entry): as the sequence (P32121 whole entry partner) above
Target sequence in this assay (P28223 whole entry): as the sequence (P28223 whole entry) above
On to `COc1cc(CCNCc2ccccc2O)c(OC)cc1I` [25I-NBOH], for which the “Emax, βarr2 assay” value is on record as 135–141%.
For `COc1cc(CCNCc2ccccc2OC)c(OC)cc1I` [25I-NBOMe], the “Emax, βarr2 assay” value is 135–141%.

A further assay has as its target T1, 5-HT2AR.
Assay: not given
Conditions: not given
Format: cell-based.
Target sequence in this assay (P28223 whole entry): as above
In the case of `COc1cc(CCNC2COc3ccccc32)c(OC)cc1C#N` (racemic) [(±)-6f, (±)-4-(2-((2,3-Dihydrobenzofuran-3-yl)amino)ethyl)-2,5-dimethoxybenzonitrile Hydrochloride], the “Alternative β-factor” value is 1.420 and 0.711; the “Bias judged from the bias plot, relative to LSD” value is “highly biased for βarr2 recruitment”; the “Bias judged from the bias plot, relative to serotonin” value is recorded as “strong preference toward βarr2 recruitment”; the “Difference in potency between the β-arr2 and miniGαq assays” value was found to be 6 fold.

Values taken from article PMC9511481 (Journal of Medicinal Chemistry, 2022).
